Consider 22 molecules from patent publication US9156796B2, “Benzoimidazole-carboxylic acid amide derivatives as APJ receptor modulators” (SANOFI, priority 2013, dated 2015).

This assay addresses T1, human apelin receptor (Homo sapiens, UniProt P35414).
T1 construct: expressed in transfected cells
T1 sequence (P35414 1-380): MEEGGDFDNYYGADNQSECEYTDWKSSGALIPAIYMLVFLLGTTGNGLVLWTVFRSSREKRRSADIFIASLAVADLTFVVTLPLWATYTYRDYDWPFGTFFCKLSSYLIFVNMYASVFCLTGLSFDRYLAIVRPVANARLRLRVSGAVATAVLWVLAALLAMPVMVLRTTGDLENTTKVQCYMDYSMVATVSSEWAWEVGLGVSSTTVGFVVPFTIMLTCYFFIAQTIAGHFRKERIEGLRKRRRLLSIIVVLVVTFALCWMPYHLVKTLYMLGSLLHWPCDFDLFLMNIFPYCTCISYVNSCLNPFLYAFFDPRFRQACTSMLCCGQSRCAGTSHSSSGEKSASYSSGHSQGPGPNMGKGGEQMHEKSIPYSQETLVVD
Put plainly: Determination of agonism on the human apelin receptor by a calcium fluorescence assay (FLIPR). Conditions: HEK293 cells stably transfected with human apelin receptor and Giaq protein, Fluo-4 calcium fluorescence, read-out: EC50 (APJ agonism). The assay is classed as cell-based. Put shortly:
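HEK293 cells stably co-expressing human apelin receptor and promiscuous Giaq, loaded 1 h at 37 °C with Fluo-4 (4 μM) in probenecid-containing Hepes buffer, pH 7.4. Compounds, at least 7 concentrations in triplicate, added in FLIPR Tetra; peak calcium fluorescence normalized to 1 μM apelin-13 as 100% to derive EC50.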

Molecules are shown by their SMILES.

On to `CCC(CC)n1c(Cc2cccs2)nc2cc(C(=O)N[C@@H](CC(C)C)C(=O)N3CCCC(OC)C3)ccc21` (stereo partly drawn) [Example 376, 1-(1-Ethyl-propyl)-2-thiophen-2-ylmethyl-1H-benzoimidazole-5-carboxylic acid [(S)-1-(3-methoxy-piperidine-1-carbonyl)-3-methyl-butyl]-amide], for which the EC50 – broadly, the concentration that produces a half-maximal response – amounted to 1830 nM.
Turning to `CCC(CC)n1c(Cc2cscn2)nc2cc(C(=O)N[C@@H](CC(C)C)C(N)=O)ccc21` [Example 172, 1-(1-Ethyl-propyl)-2-thiazol-4-ylmethyl-1H-benzoimidazole-5-carboxylic acid ((S)-1-carbamoyl-3-methyl-butyl)-amide], the EC50 stood at 4890 nM.
With `CCC(CC)n1c(Cc2cccs2)nc2cc(C(=O)N[C@@H](CC(C)C)C(=O)NC3CCN(CC(C)C)CC3)ccc21` [Example 337, 1-(1-Ethyl-propyl)-2-thiophen-2-ylmethyl-1H-benzoimidazole-5-carboxylic acid [(S)-1-(1-isobutyl-piperidin-4-ylcarbamoyl)-3-methyl-butyl]-amide] the figure was 331 nM; with `CCOC[C@H](CC(C)C)NC(=O)c1ccc2c(c1)nc(Cc1cccs1)n2C(CC)CC` [Example 208, 1-(1-Ethyl-propyl)-2-thiophen-2-ylmethyl-1H-benzoimidazole-5-carboxylic acid ((S)-1-ethoxymethyl-3-methyl-butyl)-amide], 1160 nM; with `CCC(CC)n1c(Cc2cccs2)nc2cc(C(=O)N[C@@H](CC(C)C)C(=O)NCCCN3CCC(C)CC3)ccc21` [Example 320, 1-(1-Ethyl-propyl)-2-thiophen-2-ylmethyl-1H-benzoimidazole-5-carboxylic acid {(S)-3-methyl-1-[3-(4-methyl-piperidin-1-yl)-propylcarbamoyl]-butyl}-amide], 386 nM.
The result for `CCC(CC)n1c(Cc2cccs2)nc2cc(C(=O)N[C@@H](CC(C)C)C(=O)N3CCC(N4CCc5ccccc5C4)CC3)ccc21` [Example 296, 1-(1-Ethyl-propyl)-2-thiophen-2-ylmethyl-1H-benzoimidazole-5-carboxylic acid {(S)-1-[4-(3,4-dihydro-1H-isoquinolin-2-yl)-piperidine-1-carbonyl]-3-methyl-butyl}-amide] reads 1030 nM; that for `CCC(CC)n1c(Cc2cccs2)nc2cc(C(=O)N[C@@H](CC(C)C)C(=O)NC(C)CN(C)C)ccc21` (stereo partly drawn) [Example 243, 1-(1-Ethyl-propyl)-2-thiophen-2-ylmethyl-1H-benzoimidazole-5-carboxylic acid [(S)-1-(2-dimethylamino-1-methyl-ethylcarbamoyl)-3-methyl-butyl]-amide], 771 nM.
With `CCC(CC)n1c(Cc2cccs2)nc2cc(C(=O)N[C@H](CO)C3CCCCC3)ccc21` [Example 204, 1-(1-Ethyl-propyl)-2-thiophen-2-ylmethyl-1H-benzoimidazole-5-carboxylic acid ((S)-1-cyclohexyl-2-hydroxy-ethyl)-amide] the figure was 1990 nM; with `CCC(CC)n1c(Cc2cccs2)nc2cc(C(=O)N[C@@H](CC(C)C)C(=O)NCCN3CCOCC3)ccc21` [Example 231, 1-(1-Ethyl-propyl)-2-thiophen-2-ylmethyl-1H-benzoimidazole-5-carboxylic acid [(S)-3-methyl-1-(2-morpholin-4-yl-ethylcarbamoyl)-butyl]-amide], 525 nM.
For `CCC(CC)n1c(CC2CCCC2)nc2cc(C(=O)N[C@H](CO)C(C)C)ccc21` [Example 187, 2-Cyclopentylmethyl-1-(1-ethyl-propyl)-1H-benzoimidazole-5-carboxylic acid ((S)-1-hydroxymethyl-2-methyl-propyl)-amide], the EC50 came to 29000 nM.
With `CCC(CC)n1c(Cc2cccs2)nc2cc(C(=O)N[C@@H](CC(C)C)C(=O)N(C)Cc3ccc(OC)cc3)ccc21` [Example 372, 1-(1-Ethyl-propyl)-2-thiophen-2-ylmethyl-1H-benzoimidazole-5-carboxylic acid {(S)-1-[(4-methoxy-benzyl)-methyl-carbamoyl]-3-methyl-butyl}-amide] the figure was 13200 nM; with `CC(C)C[C@@H](CC(=O)O)NC(=O)c1ccc2c(c1)nc(Cc1cccs1)n2C1CCCCC1C` (single isomer, unassigned) [Example 438], 661 nM.
The result for `CCC(CC)n1c(Cc2cccs2)nc2cc(C(=O)N[C@@H](CC(C)C)C(=O)NC(C)c3ccc(F)cc3)ccc21` (stereo partly drawn) [Example 246, 1-(1-Ethyl-propyl)-2-thiophen-2-ylmethyl-1H-benzoimidazole-5-carboxylic acid {(S)-1-[1-(4-fluoro-phenyl)-ethylcarbamoyl]-3-methyl-butyl}-amide] reads 6840 nM.
In the case of `CCC(CC)n1c(Cc2cccs2)nc2cc(C(=O)N[C@H](CSc3nnc[nH]3)CC(C)C)ccc21` [Example 483, 1-(1-Ethyl-propyl)-2-thiophen-2-ylmethyl-1H-benzoimidazole-5-carboxylic acid [(S)-3-methyl-1-(4H-[1,2,4]triazol-3-ylsulfanylmethyl)-butyl]-amide], the EC50 stood at 2080 nM.
With `C[C@@H]1CCCC[C@H]1n1c(Cc2cccs2)nc2cc(C(=O)NC(CC(=O)O)C3CCCCC3)ccc21` (single isomer, unassigned) [Example 463] the figure was 2480 nM.
With `CCC(C)n1c(Cc2ccsc2)nc2cc(C(=O)N[C@@H](CC(C)C)C(=O)O)ccc21` (stereo partly drawn) [Example 142, (S)-2-[(1-sec-Butyl-2-thiophen-3-ylmethyl-1H-benzoimidazole-5-carbonyl)-amino]-4-methyl-pentanoic acid] the figure was 12000 nM; with `CCC(CC)n1c(CC2CCCO2)nc2cc(C(=O)N[C@@H](CC3CCCCC3)C(=O)O)ccc21` (stereo partly drawn) [Example 151, (S)-3-Cyclohexyl-2-{[1-(1-ethyl-propyl)-2-(tetrahydro-furan-2-ylmethyl)-1H-benzoimidazole-5-carbonyl]-amino}-propionic acid], 890 nM.
For `CCC(CC)n1c(CC2CCCO2)nc2cc(C(=O)N[C@H](CC(=O)O)CC(C)C)ccc21` (stereo partly drawn) [Example 160, (S)-3-{[1-(1-Ethyl-propyl)-2-(tetrahydro-furan-2-ylmethyl)-1H-benzoimidazole-5-carbonyl]-amino}-5-methyl-hexanoic acid], the EC50 amounted to 820 nM.
With `CCC(CC)n1c(Cc2cccs2)nc2cc(C(=O)N[C@@H](CC(C)C)C(=O)N3CCCC(COC)C3)ccc21` (stereo partly drawn) [Example 378, 1-(1-Ethyl-propyl)-2-thiophen-2-ylmethyl-1H-benzoimidazole-5-carboxylic acid [(S)-1-(3-methoxymethyl-piperidine-1-carbonyl)-3-methyl-butyl]-amide] the figure was 2440 nM.
Consider `CC(C)C[C@H](NC(=O)c1ccc2c(c1)nc(Cc1cccs1)n2CC(C)C)C(=O)O` [Example 127, (S)-2-[(1-Isobutyl-2-thiophen-2-ylmethyl-1H-benzoimidazole-5-carbonyl)-amino]-4-methyl-pentanoic acid], for which the EC50 was 15000 nM.
With `CCC(CC)n1c(Cc2cccs2)nc2cc(C(=O)N[C@@H](CC(C)C)C(=O)NCC3CCCN(C)C3)ccc21` (stereo partly drawn) [Example 297, 1-(1-Ethyl-propyl)-2-thiophen-2-ylmethyl-1H-benzoimidazole-5-carboxylic acid {(S)-3-methyl-1-[(1-methyl-piperidin-3-ylmethyl)-carbamoyl]-butyl}-amide] the figure was 390 nM; with `CC(C)C[C@H](NC(=O)c1ccc2c(c1)nc(Cc1ccco1)n2C1CCCCC1C)C(=O)O` (single isomer, unassigned) [Example 417], 715 nM.
